In test [1] the test system is multiple myeloma cell line MM.1S. The test can be described thus: MM.1S 3 day proliferation assay, single agents and combinations (Cell-Titer Glo). Type of test: cell-based. The note with it: FIG. 1. Here is the method: The in vitro potency of the combinations of formula I compounds with chemotherapeutic agents was measured by the cell proliferation assay of Example 11 and the results are compiled in Example iii. The CellTiter-Glo® Luminescent Cell Viability Assay (commercially available from Promega Corp., Madison, Wis.) is a homogeneous assay method based on the recombinant expression of Coleoptera luciferase (U.S. Pat. No. 5,583,024; U.S. Pat. No. 5,674,713; U.S. Pat. No. 5,700,670) and determines the number of viable cells in culture based on quantitation of the ATP present, an indicator of metabolically active cells (Crouch et al (1993) J. Immunol. Meth. 160:81-88; U.S. Pat. No. 6,602,677). The CellTiter-Glo® Assay was conducted in 96 or 384 well format, making it amenable to automated high-throughput screening (HTS) (Cree et al (1995) AntiCancer Drugs 6:398-404). The homogeneous assay procedure involves adding the single reagent (CellTiter-Glo® Reagent) directly to cells cultured in serum-supplemented medium. Cell washing, removal of medium and multiple pipetting steps are not required. The system detects as few as 15 cells/well in a 384-well format in 10 minutes after adding reagent and mixing.
The homogeneous “add-mix-measure” format results in cell lysis and generation of a luminescent signal proportional to the amount of ATP present. […] Viable cells are reflected in relative luminescence units (RLU). […] Data can be recorded by luminometer or CCD camera imaging device. The luminescence output is presented as relative light units (RLU), measured over time.
The combination index (CI) score is calculated by the Chou and Talalay method (Chou, T. and Talalay, P. (1984) Adv. Enzyme Regul. 22:27-55). […] The strength of synergy is assessed according to Chou and Talalay. […]
The in vitro cell survival and proliferation assay (Cell-Titer Glo, Promega) measured viable cells over varying inhibitor concentrations (10^−3 to 10 μMolar, Relative Units, wherein a Relative Unit equals 0.3 micromolar for Compound 3, 0.3 micromolar for Formula A, and 0.1 micromolar for Formula B). […]

Test [2] has as its target BaF3 PIM1 cells (Homo sapiens, UniProt P11309). In words: BaF3 PIM1 cell proliferation (Cell Titer Glo). Type of test: cell-based.
Test [3] concerns the target BaF3 PIM2 cells (Homo sapiens, UniProt Q9P1W9). The test can be described thus: BaF3 PIM2 cell proliferation (Cell Titer Glo). Type of test: cell-based. The gist of the method: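 BaF3 cells stably transfected with PIM2 were cultured in RPMI with 10% FBS, 2 mM L-Glutamine and 250 μg/mL G418, then plated at 5 k/well in 45 μL/well of a 384-well plate. Test compound was added at 5 μL/well, cells incubated overnight, and viability measured by luminescence after 30 minutes with Cell Titer Glo (50 μL/well).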

Test [4] has as its system MM1.S cells. In words: MM1.S cell proliferation, 72 hours (Cell Titer Glo). It is filed as cell-based. As to conditions: Homo sapiens. The gist of the method:
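BaF3 parental cells (2 k/well, with 2 ng/mL mIL-3) were treated overnight, and MM1.S cells (10 k/well) were treated for 72 h at 37 °C. Viability was read by CellTiter-Glo luminescence. IC50/EC50 values were calculated from the luminescence data.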

Test [5] relates to BaF3 parental cells. The test can be described thus: BaF3 parental cell proliferation (Cell Titer Glo). As to conditions: Mus musculus, Table 3. Type of test: cell-based. The protocol:
BaF3 parental line was obtained from the DSMZ repository. BaF3 lines transfected with PIM1 or PIM2 were generated. Mouse IL-3 was purchased from R&D Systems. G418 was purchased from Clontech. Media for BaF3 parental line contained RPMI, 10% FBS, 2 mM L-Glutamine, 2 ng/mL mIL-3. Media for BaF3 PIM1 & 2 lines contained RPMI, 10% FBS, 2 mM L-Glutamine, […]. Media for MM1.S line contained RPMI, 10% FBS, 2 mM L-Glutamine.
BaF3 parental cells, BaF3 PIM1 cells, BaF3 PIM2 cells, and MM1.S cells were seeded at 2 k/well, 5 k/well, 5 k/well, and 10 k/well respectively, in a 384-well plate, at 45 μL/well. Test compound was added at 5 μL/well. BaF3 cells (parental and transfected) were incubated overnight, while MM1.S cells were incubated for 72 hours at 37° C., 5% CO2. Cell Titer Glo Reagent (Promega) was added at 50 μL/well, the plates were incubated for 30 minutes, and their luminescence read on an HT Analyst. IC50/EC50 values for the test compound were calculated.
A general note: ATP-based viability assays read luminescence as a measure of living cells.

Test [6] deals with EOL-1. The test can be described thus: EOL-1 cell assay. It is filed as cell-based. As to conditions: Homo sapiens, EOL1; Table 3.
Test [7] has as its system multiple myeloma cell line KMS11. In words: Cell Titer Glo proliferation and survival assay, KMS11 and other multiple myeloma cell lines. It is filed as cell-based. As to conditions: Homo sapiens, KMS-11; single agent; ten multiple myeloma cell lines tested; read-out: IC50 against myeloma cell lines, single agent. An excerpt:
The results obtained here are representative of a total of ten multiple myeloma cell lines tested.

Test [8] deals with bone marrow aspirate samples from multiple myeloma patients. In words: Primary cancer cell isolates from bone marrow aspirates, apoptosis. It is filed as cell-based, human. As to conditions: 0.3 or 1.0 micromolar; two of four cases. The protocol: Shown in FIG. 2 are a summary of Combination Index values for Compound 3 in combination with different agents. The values shown were calculated at the ED50 of the dose response curves which were similar in nature to those exemplified in FIG. 1. Each dot in the plot represents the test results obtained with a different multiple myeloma cell line with a different combination of test agents, including Compound 3 plus a second agent as labeled on the abscissa. The horizontal line on the plot itself indicates the mean of all CI values for a given test agent. Combinations of Compound 3 with clinical standard of care chemotherapeutic agents including dexamethasone, lenalidomide, bortezomib, and melphalan produced variable results wherein CI values between about 0.1 and about 1 were obtained, with means generally greater than about 0.5. Compared to these clinically active agents, unexpectedly uniform and unexpectedly potent combination test results were obtained for Compound 3 in combination with Formula A, in which the majority of calculated CI values were less than about 0.2 and the mean across all cancer cell lines tested was about 0.2. In addition to these findings, bone marrow aspirate samples from multiple myeloma patients […] to test Formula A and Compound 3 singly and in combination on these primary cancer cell isolates.

Test [9] concerns prostate cancer cell line PC3. In words: Cell Titer Glo proliferation and survival assay, PC3. Type of test: cell-based. The note with it: PC3, FIG. 5. The text has this: The results obtained here are representative of a subset of prostate cell lines tested.
Test [10] deals with RPMI 8226.x1 multiple myeloma xenografts. The test can be described thus: RPMI 8226.x1 multiple myeloma xenograft. It is filed as in vivo, SCID Beige mice. The note with it: Formula A 75 mg/kg po qd x21, day 27. Here is the method: (§1) The efficacy of the combinations of the invention may be measured in vivo by implanting allografts or xenografts of cancer cells in rodents and treating the tumor-bearing animals with the combinations. Variable results are to be expected depending on the cell line, the presence or absence of certain mutations in the tumor cells, the sequence of administration of a formula I compound and chemotherapeutic agent, dosing regimen, and other factors. Subject mice were treated with drug(s) or control (Vehicle) and monitored over several weeks or more to measure the time to tumor doubling, log cell kill, and tumor inhibition.
Dosing of all cohorts commenced on Day 0 when the mean tumor volume of all cohorts was between about 100 to 200 cubic millimeters.

In test [11] the test system is syngeneic A20 lymphoma tumors. In words: Syngeneic A20 lymphoma tumor model. As to conditions: Compound 3 25 and 50 mg/kg or Formula A 75 mg/kg po qd x21. Type of test: in vivo, Balb/c mice. The protocol:
The efficacy of the combinations of the invention may be measured in vivo by implanting allografts or xenografts of cancer cells in rodents and treating the tumor-bearing animals with the combinations. […] Subject mice were treated with drug(s) or control (Vehicle) and monitored over several weeks or more to measure the time to tumor doubling, log cell kill, and tumor inhibition.
Dosing of all cohorts commenced on Day 0 when the mean tumor volume of all cohorts was between […]. […] At the conclusion of this study, femurs were collected and histological analysis of the bone marrow was conducted, and peripheral blood was collected for determination of blood cell counts.

Test [12] deals with MM1.s multiple myeloma xenografts. The test can be described thus: MM1.s multiple myeloma xenograft. It is filed as in vivo, SCID mice. The note with it: Formula A 75 mg/kg po qd, day 18; compared with Compound 3 50 mg/kg. The protocol:
as §1
Dosing of all cohorts commenced on Day 0 when the mean tumor volume of all cohorts was between about 200 to 300 cubic millimeters. […] Formula A was tested at as a single agent at a single dose level of 75 mg/kg for which a lesser TGI was obtained at day 18.

Test [13] concerns the target T1, PIM1 (Homo sapiens, UniProt P11309).
T1 construct: made in house
In words: Pim-1 kinase enzymatic assay (Caliper LC3000, FAM-Pimtide substrate). The note with it: 20 pM PIM1, 10 μM ATP, 90 minutes; read-out: PIM1 LC3K (Ki). Type of test: biochemical.

Test [14] deals with T2, PIM2 (Homo sapiens, UniProt Q9P1W9).
T2 construct: made in house
T2 sequence (Q9P1W9 whole entry): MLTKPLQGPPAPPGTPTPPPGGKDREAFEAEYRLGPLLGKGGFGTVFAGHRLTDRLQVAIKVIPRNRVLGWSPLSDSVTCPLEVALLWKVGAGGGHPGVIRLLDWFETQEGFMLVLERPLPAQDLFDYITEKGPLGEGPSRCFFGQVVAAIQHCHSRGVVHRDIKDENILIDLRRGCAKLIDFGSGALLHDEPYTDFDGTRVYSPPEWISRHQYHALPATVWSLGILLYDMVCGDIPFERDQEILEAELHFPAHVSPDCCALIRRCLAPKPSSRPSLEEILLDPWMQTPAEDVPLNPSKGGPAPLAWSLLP
In words: Pim-2 kinase enzymatic assay (Caliper LC3000, FAM-Pimtide substrate). It is filed as biochemical. As to conditions: 50 pM PIM2, 10 μM ATP, 90 minutes; read-out: PIM2 LC3K (Ki).

Test [15] concerns the target T3, PIM3 (Homo sapiens, UniProt Q86V86).
T3 construct: made in house
The test can be described thus: Pim-3 kinase enzymatic assay (Caliper LC3000, FAM-Pimtide substrate). Type of test: biochemical. As to conditions: 55 pM PIM3, 10 μM ATP, 90 minutes; read-out: PIM3 LC3K (Ki).

Where [16] appears, read: incubated overnight, read-out: Prolif BaF3_PIM1 (IC50).
The mark [17] stands for this setting: incubated overnight, read-out: Prolif BaF3_PIM2 (IC50).
Setting [18] is: 72 hours, read-out: Prolif MM1S ATP (EC50).

SMILES strings stand for the structures. Read-outs that look alike come from different tables or passages of the source.

By IC50 is commonly meant the concentration needed to halve the response being measured. What is called Ki is a dissociation constant, usually derived from enzyme kinetics or from competition with a known ligand.

BaF3 PIM2 cells, sequence (Q9P1W9 whole entry, change not shown): as the sequence (Q9P1W9 whole entry) above
BaF3 PIM1 cells, sequence (P11309 whole entry, change not shown): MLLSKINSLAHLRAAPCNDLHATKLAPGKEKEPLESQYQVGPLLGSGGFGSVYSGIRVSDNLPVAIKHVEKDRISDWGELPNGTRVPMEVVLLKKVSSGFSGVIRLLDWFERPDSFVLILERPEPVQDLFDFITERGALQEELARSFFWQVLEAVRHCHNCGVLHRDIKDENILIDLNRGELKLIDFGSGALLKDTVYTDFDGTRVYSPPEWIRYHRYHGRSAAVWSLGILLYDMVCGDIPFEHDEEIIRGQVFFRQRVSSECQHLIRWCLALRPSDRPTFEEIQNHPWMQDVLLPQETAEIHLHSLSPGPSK
T1 sequence (P11309 whole entry): as the sequence (P11309 whole entry, change not shown) above

As for `Cc1c(CN2CCN(C(=O)[C@H](C)O)CC2)sc2c(N3CCOCC3)nc(-c3cnc(N)nc3)nc12` [Formula B, (S)-1-(4-((2-(2-aminopyrimidin-5-yl)-7-methyl-4-morpholinothieno[3,2-d]pyrimidin-6-yl)methyl)piperazin-1-yl)-2-hydroxypropan-1-one], the “lowest level reached by dose-response curve, of control value” in [1] is recorded as “about 0%”.
Turning to `O=C(Nc1c[nH]c2ncccc12)c1cnn2ccc(NCCc3ccccc3)nc12` [Compound PIMi, 5-(phenethylamino)-N-(1H-pyrrolo[2,3-b]pyridine-3-yl)pyrazolo[1,5-a]pyrimidine-3-carboxamide, reference compound], the GI50 was 400 nM in test [2] (Table 3, read-out: BaF3-Pim1) and more than 20000 nM in [3] (Table 3, read-out: BaF3-Pim2). Further, the EC50 in test [4] (Table 3, read-out: MM1.s) was more than 20000 nM. Further, the IC50 in test [5] is 12000 nM; in test [6], 400 nM; in [7], more than 5000 nM.
Consider `CS(=O)(=O)N1CCN(Cc2cc3nc(-c4cccc5[nH]ncc45)nc(N4CCOCC4)c3s2)CC1` [Formula A, 4-(2-(1H-indazol-4-yl)-6-((4-(methylsulfonyl)piperazin-1-yl)methyl)thieno[3,2-d]pyrimidin-4-yl)morpholine, reference compound], for which, in test [1], the “lowest level reached by dose-response curve, of control value” is “about 0%”. Moreover, the “activity on primary cancer cell isolates” value in [8] is “only limited single agent activity”. Also, in test [9], the IC50 was approximately 300 nM. For the same molecule, the “tumor growth inhibition (TGI)” value in test [10] turned out to be 40%. Also, the “effect on tumor growth, single agents” value in test [11] was “no significant effect on tumor growth”. The “tumor growth inhibition (TGI), in words” value in test [12] is recorded as “lesser TGI”.
On to `Nc1sc(-c2cnc3ccccn23)nc1C(=O)Nc1cnccc1N1CCC[C@H](N)C1` [Example 57, (S)-5-amino-N-(4-(3-aminopiperidin-1-yl)pyridin-3-yl)-2-(imidazo[1,2-a]pyridin-3-yl)thiazole-4-carboxamide], for which the Ki in test [13] was 0.11 nM; in test [14], 2.88 nM; in test [15] it was 0.229 nM. Also, the GI50 in [2] (setting [16]) is 494 nM; in [3] (setting [17]), more than 20000 nM. In addition, the EC50 in [4] (setting [18]) came to 5100 nM.
`CCOc1ccc(F)c(-c2nc(C(=O)Nc3cnccc3N3CCC[C@H](N)C3)c(N)s2)c1F` [Example 26, (S)-5-amino-N-(4-(3-aminopiperidin-1-yl)pyridin-3-yl)-2-(3-ethoxy-2,6-difluorophenyl)thiazole-4-carboxamide]: the Ki in [13] turned out to be 0.014 nM; in test [14], 0.15 nM; in test [15], 0.022 nM. For the same molecule, the GI50 turned out to be 28.2 nM in test [2] (setting [16]) and 2400 nM in [3] (setting [17]). Moreover, in test [4] (setting [18]), the EC50 was determined as 148 nM.
On to `CCNC(=O)Nc1ccc(-c2nc(C(=O)Nc3cnccc3N3CCC[C@H](N)C3)c(N)s2)cc1` [Example 32, (S)-5-amino-N-(4-(3-aminopiperidin-1-yl)pyridin-3-yl)-2-(4-(3-ethylureido)phenyl)thiazole-4-carboxamide], for which the Ki came out at 0.054 nM in [13], 0.127 nM in [14] and 0.022 nM in test [15]. The values for the GI50 in [2] (setting [16]) and in [3] (setting [17]) were 1700 nM and more than 20000 nM, respectively. Further, the EC50 in test [4] (setting [18]) amounted to 650 nM.

For the origin of these results see patent US8435976B2, “4-substituted pyridin-3-yl-carboxamide compounds and methods of use” (F. Hoffmann-La Roche, priority 2009, dated 2013).
